Test results reported in US9789159B2, “Diagnosis and treatment of prostate cancer” (The Research Foundation for The State University of New York, priority 2011, dated 2017).

Assays:
PC3 cells = settings: androgen independent PC3 cells; 10 nM DHT for indicated times; Western blot
Procedure: In FIG. 2B, PC3 cells were treated with 10 nM DHT for indicated times, cells were collected and cellular extracts were prepared and analyzed for Hexim-1 and GAPDH. The histogram indicates a ratio between Hexim-1 and GAPDH. Data are expressed as means±SE of 3 independent experiments.

LNCaP cell line = settings: VEGF 10 ng/mL or 10 nM DHT for 3, 6, 12 and 24 hr, Western blot densitometry, P<0.05 vs control
Procedure: In this example, to determine the responsiveness of Hexim-1 to androgen and VEGF in the epithelial prostate LNCap cell line, LNCap cells were treated with VEGF (10 ng/mL) or 10 nM dihydrotestosterone (DHT) for 3, 6, 12 and 24 hours, with the change in expression of Hexim-1 protein evaluated by Western blot.
FIG. 2A illustrates the epithelial prostate LNCaP cell line which was treated with VEGF (10 ng/ml) or 10 nM dihydrotestosterone (DHT) 10 nM for 3, 6, 12 and 24 hr. Protein extracts were obtained from each time point and the changes in the protein expression of Hexim-1, p-Akt and GAPDH evaluated by Western blot. The histogram indicates the ratio between p-AKT and GAPDH and the ratio of Hexim-1 to GAPDH as obtained by densitometry analysis of the Western blots. Data are expressed as means±SE of 4 independent experiments.

androgen receptor (AR) = androgen receptor (AR) (UniProt P19091)
Chain of UniProt P19091 (P19091 whole entry): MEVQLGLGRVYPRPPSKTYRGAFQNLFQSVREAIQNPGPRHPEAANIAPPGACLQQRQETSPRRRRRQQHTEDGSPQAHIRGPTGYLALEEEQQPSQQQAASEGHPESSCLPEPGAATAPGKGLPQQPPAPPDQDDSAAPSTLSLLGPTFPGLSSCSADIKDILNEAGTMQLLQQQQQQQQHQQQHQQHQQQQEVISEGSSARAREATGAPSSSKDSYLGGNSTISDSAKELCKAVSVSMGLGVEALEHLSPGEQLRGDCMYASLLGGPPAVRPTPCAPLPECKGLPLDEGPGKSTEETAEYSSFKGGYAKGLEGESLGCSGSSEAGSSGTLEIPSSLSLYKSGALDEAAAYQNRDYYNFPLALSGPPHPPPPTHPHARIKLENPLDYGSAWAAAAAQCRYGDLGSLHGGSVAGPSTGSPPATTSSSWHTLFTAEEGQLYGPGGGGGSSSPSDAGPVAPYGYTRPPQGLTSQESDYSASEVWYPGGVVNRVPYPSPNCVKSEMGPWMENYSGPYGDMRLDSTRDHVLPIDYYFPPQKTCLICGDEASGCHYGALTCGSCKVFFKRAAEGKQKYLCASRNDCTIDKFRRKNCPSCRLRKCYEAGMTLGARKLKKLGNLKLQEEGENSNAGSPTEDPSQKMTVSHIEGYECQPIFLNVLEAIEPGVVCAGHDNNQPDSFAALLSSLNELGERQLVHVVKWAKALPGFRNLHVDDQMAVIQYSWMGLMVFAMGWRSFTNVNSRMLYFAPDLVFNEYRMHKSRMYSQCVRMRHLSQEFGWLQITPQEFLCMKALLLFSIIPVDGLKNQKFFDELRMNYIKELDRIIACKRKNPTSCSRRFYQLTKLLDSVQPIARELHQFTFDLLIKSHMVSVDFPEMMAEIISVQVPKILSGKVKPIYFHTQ

Question: Which “Hexim-1 levels (ratio between Hexim-1 and GAPDH)” value (PC3 cells) does the source give for `C[C@]12CCC(=O)C[C@@H]1CC[C@@H]1[C@@H]2CC[C@]2(C)[C@@H](O)CC[C@@H]12` [DHT, dihydrotestosterone] here?
Answer: The value was “not changed”.

Question: And the “Hexim-1 protein levels (ratio of Hexim-1 to GAPDH)” value (LNCaP cell line)?
Answer: The value was “induced”.

Question: What about the “p-Akt levels (ratio between p-AKT and GAPDH)” value (LNCaP cell line) of the same molecule?
Answer: The value was “correlated with the increased Hexim-1 expression”.

Question: For VEGF, which “Hexim-1 protein levels (ratio of Hexim-1 to GAPDH)” value (LNCaP cell line) is on record?
Answer: The value was “induced”.

Question: What about the “p-Akt levels (ratio between p-AKT and GAPDH)” value (LNCaP cell line) of the same molecule?
Answer: The value was “correlated with the increased Hexim-1 expression”.

Question: cyclin dependent kinase 9 (Cdk9) was tested. Which “serine-81 phosphorylation of the androgen receptor (Western blot after immunoprecipitation)” value (androgen receptor (AR)) did it give?
Answer: The value was “the serine phosphorylation of AR is significantly increased”.
